We go through two compounds from patent US12433830B2, “Anti-aging compositions and methods of use thereof” (S.I.S. SHULOV INNOVATIVE SCIENCE LTD., priority 2019, dated 2025).

Series [1] relates to epidermal cells. Description: Formation of reactive oxygen species (ROS) in epidermal cells under stress conditions. As to conditions: stress conditions (70 mM NaCl). The series is classed as cell-based.
Series [2] deals with epidermal cells. Briefly: Viability of epidermal cells under stress conditions. As to conditions: stress conditions (70 mM NaCl). The series is classed as cell-based.
The conditions of series [3]: rat, chemical corneal injury; cited from earlier work.
Series [4] relates to Mattek's EpiDerm™ X (EPI-606-X) reconstructed human epidermis tissue. Briefly: Skin metabolism, full scan HRMS search for metabolites in permeation samples. The series is classed as in vitro ADME. The following applies: t=4, 8, 20, 22, 24 h vs time zero; positive and negative ESI. The method, then:
The skin metabolism of ZEP3 and ZEP3Na was also investigated. Full scan HRMS chromatograms were acquired for the samples, in both positive and negative ESI mode, in order to identify possible metabolites of the target analytes. Differential analysis between the samples through the experiment (t=4, 8, 20, 22, and 24 h) and the sample at time zero was performed. Evaluation of the fragmentation profile through MS/MS experiments was also performed in order to provide additional information.

Where a SMILES comes first, the peptide text is derived from it. [ ]: non-standard residue; d: D form. The star is where a group is joined. pGlu = O=C1CC[C@@H](C(=O)O)N1; Octanoyl = CCCCCCCC(=O)*

As for “pGlu-Asn-Trp-Thr-OH ([pGlu]NWT-OH; SMILES C[C@@H](O)[C@H](NC(=O)[C@H](Cc1c[nH]c2ccccc12)NC(=O)[C@H](CC(N)=O)NC(=O)[C@@H]1CCC(=O)N1)C(=O)O) [ZEP4]”, the “formation of reactive oxygen species (ROS)” value with epidermal cells [1] is recorded as “reduced the formation of reactive oxygen species (ROS)”. In addition, in the series on epidermal cells [2], the “viability of epidermal cells” value was “increased viability of epidermal cells”. In addition, in series [3], the “effect on ocular pain” value is recorded as “analgesic effect”.
With `CCCCCCCC(=O)NCCCC[C@H](NC(=O)[C@H](Cc1c[nH]c2ccccc12)NC(=O)[C@H](CC(N)=O)NC(=O)[C@@H]1CCC(=O)N1)C(=O)O` [ZEP3, pGlu-Asn-Trp-Lys(Octanoyl)-OH] ([pGlu]NWK(Octanoyl)-OH), in series [4], the metabolites identified result was “No metabolites”. In the series on epidermal cells [1], the “formation of reactive oxygen species (ROS)” value is on record as “reduced the formation of reactive oxygen species (ROS)”. Besides, the “viability of epidermal cells” value in the series with epidermal cells [2] is on record as “increased viability of epidermal cells”.
